Read-outs that look alike come from different tables or passages of the source.
Assays:
CYP1A2 [1] = biological target: T1, CYP1A2 (Canis lupus familiaris, UniProt P56592); experiment: CYP1A2 fluorometric activity assay in beagle hepatic microsomes; assay type: in vitro ADME; conditions: beagle, dog, 15 min, 50 µM
T1 construct: endogenous in cells; host or cells: beagle hepatocytes
T1 sequence (P56592 1-512): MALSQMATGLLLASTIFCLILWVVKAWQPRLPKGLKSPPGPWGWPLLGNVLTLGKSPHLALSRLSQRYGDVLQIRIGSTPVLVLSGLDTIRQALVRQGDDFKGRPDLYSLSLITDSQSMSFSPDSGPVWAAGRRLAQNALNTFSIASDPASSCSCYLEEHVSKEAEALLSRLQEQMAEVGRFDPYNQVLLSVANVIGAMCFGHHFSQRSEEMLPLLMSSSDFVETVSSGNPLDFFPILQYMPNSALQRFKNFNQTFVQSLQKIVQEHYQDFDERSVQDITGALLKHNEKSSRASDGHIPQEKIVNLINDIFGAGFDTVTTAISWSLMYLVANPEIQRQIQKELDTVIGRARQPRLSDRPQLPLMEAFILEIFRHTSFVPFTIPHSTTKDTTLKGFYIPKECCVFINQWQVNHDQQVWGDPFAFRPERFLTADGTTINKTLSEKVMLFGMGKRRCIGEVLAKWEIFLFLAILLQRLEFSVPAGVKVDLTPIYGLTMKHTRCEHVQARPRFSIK
Description: (§1) The Biovision CYP assay (BioVision, Inc., Kampenhout, Belgium) utilizes a non-fluorescent CYP1A2 substrate capable of transforming into a highly fluorescent metabolite, which can be detected in the visible range. α-naphthoflavone was used as a CYP1A2 reference inhibitor at 6 µM during the experiments. Rat (Sprague–Dawley) and beagle (Gibco, Biocenter, Szeged, Hungary, protein concentration: 20 mg/mL) hepatic microsomal preparations were prepared separately by mixing 25 µL of the obtained rat or beagle microsomal suspension with 2425 µL assay buffer and with 50 µL NADPH generating system (100×). In the case of the cynomolgus monkey microsomal suspension (Primacyt, Schwerin, Germany, protein concentration: 5 mg/mL), the following volumes were applied: in addition to 100 µL of monkey microsomal suspension, the amount of assay buffer and the NADPH generating system were adjusted in order to ensure the original ratios of these components to reach a final volume of 2500 µL. Rat, beagle, and cynomolgus monkey microsomal suspension aliquots (50 µL) were treated with the protease inhibitor 20 µL, 0–1000 µM), the reference compound α-naphthoflavone (20 µL, 30 µM), or the assay buffer without test compounds (20 µL, background control) for 15 min at 37 °C. After incubation, 30 µL of the appropriate CYP1A2 substrate/NADP+ mixture was added to each well, yielding a final reaction volume of 100 µL/well. The protein contents of the obtained microsomes were analysed using bicinchoninic acid protein assay kit (Pierce BCA kit, Thermo Fisher Scientific, Waltham, MA, USA). […] The fluorescence intensities were measured with a fluorometer (Victor X2 2030, Perkin Elmer, Waltham, MA, USA), using λEx/Em = 406/468 nm.

CYP1A2 [2] = biological target: T1, CYP1A2; assay type: cell-based; conditions: dog, 2 h
Description: For the measurements of CYP1A2 activities, hepatocytes were grown on 24-well collagen-coated membrane inserts (Costar Transwell-PTFE membrane, 6.5 mm, pore size: 0.4 µm, Merck, Darmstadt, Germany). […] The determination of the CYP1A2 activities were performed using the P450-Glo CYP450 Assay (Promega, Madison, WI, USA) according to the manufacturer’s instructions.

[3] = system: chicken hepatic cell model; conditions: cited from earlier work
CYP1A2 [4] = biological target: T2, CYP1A2 (Rattus norvegicus, UniProt P04799); experiment: CYP1A2 fluorometric activity assay in rat hepatic microsomes; assay type: in vitro ADME, rat (Sprague–Dawley); set-up: Rat (Sprague–Dawley) and beagle (Gibco, Biocenter, Szeged, Hungary, protein concentration: 20 mg/mL) hepatic microsomal preparations; tissue Gibco, Biocenter, Szeged, Hungary; host or cells: liver (hepatic microsomes), Sprague-Dawley rat
T2 sequence (P04799 1-513): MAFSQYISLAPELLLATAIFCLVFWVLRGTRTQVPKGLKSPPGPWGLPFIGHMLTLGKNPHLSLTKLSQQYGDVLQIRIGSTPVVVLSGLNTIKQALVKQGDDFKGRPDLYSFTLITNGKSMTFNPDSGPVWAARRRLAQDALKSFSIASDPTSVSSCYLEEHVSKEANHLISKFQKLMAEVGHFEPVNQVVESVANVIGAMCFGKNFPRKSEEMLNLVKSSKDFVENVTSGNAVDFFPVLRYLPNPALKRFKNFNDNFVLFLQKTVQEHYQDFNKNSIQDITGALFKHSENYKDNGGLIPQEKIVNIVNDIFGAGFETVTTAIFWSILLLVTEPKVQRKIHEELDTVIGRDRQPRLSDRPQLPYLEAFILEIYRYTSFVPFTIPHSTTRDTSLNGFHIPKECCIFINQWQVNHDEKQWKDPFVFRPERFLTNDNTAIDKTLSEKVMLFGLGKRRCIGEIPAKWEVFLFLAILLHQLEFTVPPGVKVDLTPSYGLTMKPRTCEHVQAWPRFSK
Description: as §1

[5] = system: intestinal epithelial cells (HIEC and IPEC-J2) and primary human hepatocytes (PHH); conditions: up to a concentration 50 μM; cited from earlier work
beagle hepatocytes = experiment: MTS cytotoxicity assay in beagle primary hepatocytes; assay type: cell-based; conditions: 50 μM and 100 μM, 24 h
Description: (§2) Rat, beagle, and cynomolgus monkey cryopreserved primary hepatocytes were obtained from Primacyt Cell Culture Company (Schwerin, Germany). The thawing, plating, and maintenance media were purchased from Lonza Group Ltd. (Biocenter Ltd., Szeged, Hungary). Influence of inhibitors MI-432 and MI-1900 on the viability of primary […] hepatocytes was tested. Hepatocytes, grown on a 96-well plate for 24 h, were incubated with the inhibitors at 0, 50, and at 100 µM for 24 h in treated groups. The control cells were incubated only with cell maintenance medium. After removal of the medium and three-fold washing of the cells with phosphate-buffered saline (PBS), 20 μL aliquots of CellTiter 96 AQueous one solution (MTS, Promega, Bioscience, Budapest, Hungary) were pipetted into a 96-well plate, each containing 100 μL of phenol red free medium. The plate was incubated with dye for 2 h. Viability of hepatocytes was measured at 490 nm using an EZ Read Biochrom 400 microplate reader.

[6] = system: cynomolgus monkey hepatocytes; experiment: MTS cytotoxicity assay in cynomolgus monkey primary hepatocytes; assay type: cell-based; conditions: 50 μM and 100 μM, 24 h
Description: as §2

rat hepatocytes = experiment: MTS cytotoxicity assay in rat primary hepatocytes; assay type: cell-based; conditions: 50 μM and 100 μM, 24 h
Description: as §2

[7] = system: intestinal epithelial cells; conditions: up to a concentration 50 μM; cited from earlier work

With `N=C(N)c1cccc(C[C@H](NS(=O)(=O)c2cccc(-c3ccc(Cl)cc3Cl)c2)C(=O)N2CCC(CCN)CC2)c1` [MI-432] the “beagle hepatic microsomal CYP1A2 isoenzyme activity” value (CYP1A2 [1]) was “reduced the activity of CYP1A2”, the “CYP1A2 function in beagle hepatocytes” value (CYP1A2 [2]; 20 µM) was “significantly inhibited CYP1A2 function” and the “CYP1A2 function in beagle hepatocytes” value (CYP1A2 [2]; 50 µM) was “significantly inhibited CYP1A2 function”. The redox homeostasis [3] was “only transiently disturbed” and the “rat hepatic microsomal CYP1A2 isoenzyme activity” value (CYP1A2 [4]; Sprague-Dawley, rat, 15 min, 50 µM) was “did not inhibit CYP1A2 function”.
For `COc1ccc(-c2cccc(S(=O)(=O)N[C@@H](Cc3cccc(C(=N)N)c3)C(=O)N3CCN(C(=O)NC4CCCCC4)CC3)c2)c(OC)c1` [MI-1900], the cell death [5] is given as “did not cause significant cell death”, the “cell viability vs control” value (beagle hepatocytes) is given as “No significant differences” and the “cell viability vs control” value [6] is given as “No significant differences”. For the same compound, the “cell viability vs control” value (rat hepatocytes) was “No significant differences”, the “extracellular hydrogen peroxide levels” value [7] was “did not result in elevation in extracellular hydrogen peroxide levels” and the “rat hepatic microsomal CYP1A2 isoenzyme activity” value (CYP1A2 [4]; inhibitors at 50 µM, 15 min at 37 °C, vs untreated control) was “suppressed”.
